{
  "source": "paper PMC8011931",
  "about": "“Identification, Structure–Activity Relationship, and Biological Characterization of 2,3,4,5-Tetrahydro-1H-pyrido[4,3-b]indoles as a Novel Class of CFTR Potentiators” (Journal of Medicinal Chemistry, 2020)",
  "key": {"[1]": {"experiment": "Liver microsomal stability, phase I (NADPH), dog", "format": "in vitro ADME", "settings": "for dog LM_NADPH parent compound remaining at the last time point (in parentheses): 4.6 μM, 60 min; for half-life at 4.6 μM: dog, liver microsomes, pH 7.5, 0.1% DMSO, n ≥ 3, read-out: dog LM_NADPH t1/2", "protocol": "[…] The final concentration was 4.6 μM. After preincubation, the cofactors (NADPH, G6P, G6PDH, and MgCl2 predissolved in 0.1 M Tris–HCl) were added to the incubation mixture and the incubation was continued at 37 °C for 1 h.\nFor both phase I and II studies: At each time point (0, 5, 15, 30, and 60 min), 30 μL of the incubation mixture was diluted with 200 μL of cold CH3CN spiked with 200 nM of an appropriate internal standard, followed by centrifugation at 3270g for 15 min. The supernatant was further diluted with H2O (1:1) for analysis. A reference incubation mixture (microsomes without cofactors) was prepared for each test compound and analyzed at t = 0 and 60 min in order to verify the compound’s stability in the matrix. The two time points were diluted as for the time points of the incubation mixture above. The supernatants were analyzed by LC/MS–MS on a Waters ACQUITY UPLC/MS TQD system consisting of a TQD (triple quadrupole detector) mass spectrometer equipped with an electrospray ionization interface and a photodiode array eλ detector. Electrospray ionization was applied in positive mode. Compound-dependent parameters as MRM transitions and collision energy were developed for each compound. The analyses were run on an ACQUITY UPLC BEH C18 (50 × 2.1 mm ID, particle size 1.7 μm) with a VanGuard BEH C18 precolumn (5 × 2.1 mm ID, particle size 1.7 μm) at 40 °C, using H2O + 0.1% HCOOH (A) and CH3CN + 0.1% HCOOH (B) as the mobile phase. The percentage of test compound remaining at each time point relative to t = 0 was calculated by the response factor on the basis of the internal standard peak area. The percentage of test compound versus time was plotted and fitted by GraphPad Prism (GraphPad Software, Version 5 for Windows, CA, USA, www.graphpad.com) to estimate the compound’s half-life (t1/2), which was reported as mean value along with the standard deviation (n = 3)."}, "[2]": {"experiment": "Aqueous kinetic solubility assay", "format": "physicochemical", "settings": "PBS, pH 7.4; n = 3", "protocol": "The aqueous kinetic solubility was determined from a 10 mM DMSO stock solution of test compound in PBS at pH 7.4. The study was performed by incubation of an aliquot of 10 mM DMSO stock solution in PBS (pH 7.4) at a target concentration of 250 μM (2.5% DMSO). The incubation was carried out under shaking at 25 °C for 24 h, followed by centrifugation at 21,100g for 30 min. The supernatant was further diluted (4:1) with CH3CN and the dissolved test compound was quantified by UV at 215 nm on a Waters ACQUITY UPLC/MS system consisting of an SQD mass spectrometer equipped with an electrospray ionization interface and a photodiode array detector. Electrospray ionization in the positive mode was used in the mass scan range of 100–500 Da. The PDA range was 210–400 nm. The analyses were run on an ACQUITY UPLC BEH C18 column (50 × 2.1 mm ID, particle size 1.7 μm) with a VanGuard BEH C18 precolumn (5 × 2.1 mm ID, particle size 1.7 μm) using 10 mM NH4OAc in H2O at pH 5 adjusted with AcOH (A) and 10 mM NH4OAc in CH3CN–H2O (95:5) at pH 5 (B) as the mobile phase."}, "HepG2 cells": {"system": "HepG2 cells", "experiment": "HepG2 cell toxicity assay (CTG and MTT)", "format": "cell-based", "settings": "at 20 μM, 24 h, CTG and MTT assays; percent of vehicle-treated controls", "protocol": "In order to assess a possible liver toxicity liability, the selected analogues were also tested in HepG2 cells at two concentrations (2.0 and 20 μM) for 24 h, along with a reference compound (rotenone). A reduction of cell viability to less than 80% was set as the threshold for estimation of cytotoxicity.[42]\nTo increase the detection of drug-induced mitochondrial effects in a preclinical cell-based assay, HepG2 hepatocellular carcinoma cells (ATCC HB-8065) were forced to rely on mitochondrial oxidative phosphorylation rather than glycolysis by substituting galactose (10 mM) for glucose (25 mM) in the growth media (DMEM, Life Technologies).\nHigh-glucose media: high-glucose DMEM (Invitrogen 11995-065) containing 25 mM glucose, 1.0 mM sodium pyruvate, supplemented with 5 mM N-(2-hydroxyethyl)piperazine-N′-(2-ethanesulfonic acid) (HEPES), and 10% FBS. Galactose media: DMEM deprived of glucose (Invitrogen 11966-025), supplemented with 10 mM galactose, 2.0 mM glutamine (6 mM final), 5.0 mM HEPES, 10% FBS, and 1.0 mM sodium pyruvate.\nFor the cytotoxicity assay, cells were plated at 20,000 cells/well in 100 μL of cell culture media in 96-well plates and allowed to grow overnight. The cells were treated for 24 h with 2.0 or 20 μM of each compound. All compounds were dissolved in DMSO with a stock concentration of 4 mM. The first dilution step of compounds was prepared in DMSO (200× stock solutions), while the second dilution step was carried out in a complete cell culture medium (5% DMSO). Of this dilution, 10 μL were added to the wells of the 96-well plate, with a final DMSO concentration of 0.5%. Rotenone, a well-known mitochondrial inhibitor, was used as a reference compound. After treatment, cellular viability was assessed by using two different assays, run on independent plates: the CellTiter-Glo (CTG) Luminescent Cell Viability Assay (Promega), which determines the number of viable cells based on the quantitation of the ATP present, and the thiazolyl blue tetrazolium […] (MTT) dye (Aldrich), which is converted to water-insoluble MTT formazan crystals by mitochondrial dehydrogenases of living cells. Each experimental condition (i.e., control, reference, and compounds’ doses) has been tested in three technical replicates."}},
  "data": [
    {"smiles": "COc1ccc2[nH]c3c(c2c1)CN(C(=O)c1cc(C(F)(F)F)[nH]n1)CC3", "note": "[Compound 3, (8-Methoxy-1,3,4,5-tetrahydropyrido[4,3-b]indol-2-yl)-[5-(trifluoromethyl)-1H-pyrazol-3-yl]methanone]", "values": [
      {"measurement": "dog LM_NADPH parent compound remaining at the last time point (in parentheses)", "setting": "[1]", "result": 68, "unit": "%"},
      {"measurement": "half-life at 4.6 μM", "setting": "[1]", "result": "> 60", "unit": "min"},
      {"measurement": "solubility kinetic at 24 h, 250 µM", "setting": "[2]", "result": "237 ± 11", "unit": "µM"},
      {"measurement": "HepG2 (% survival)", "setting": "HepG2 cells", "result": ">80", "unit": "%"}
    ]},
    {"smiles": "O=C(c1cc(C(F)(F)F)[nH]n1)N1CCc2[nH]c3c(F)cccc3c2C1", "note": "[Compound 20, (6-Fluoro-1,3,4,5-tetrahydro-2H-pyrido[4,3-b]indol-2-yl)-(5-(trifluoromethyl)-1H-pyrazol-3-yl)methanone]", "values": [
      {"measurement": "dog LM_NADPH parent compound remaining at the last time point (in parentheses)", "setting": "[1]", "result": 85, "unit": "%"},
      {"measurement": "half-life at 4.6 μM", "setting": "[1]", "result": "> 60", "unit": "min"},
      {"measurement": "solubility kinetic at 24 h, 250 µM", "setting": "[2]", "result": "9 ± 4", "unit": "µM"},
      {"measurement": "HepG2 (% survival)", "setting": "HepG2 cells", "result": ">80", "unit": "%"}
    ]},
    {"smiles": "COc1cc(F)c2[nH]c3c(c2c1)CN(C(=O)c1cc(C(F)(F)F)[nH]n1)CC3", "note": "[Compound 25, (6-Fluoro-8-methoxy-1,3,4,5-tetrahydro-2H-pyrido[4,3-b]indol-2-yl)-(5-(trifluoromethyl)-1H-pyrazol-3-yl)methanone]", "values": [
      {"measurement": "dog LM_NADPH parent compound remaining at the last time point (in parentheses)", "setting": "[1]", "result": 90, "unit": "%"},
      {"measurement": "half-life at 4.6 μM", "setting": "[1]", "result": "> 60", "unit": "min"},
      {"measurement": "solubility kinetic at 24 h, 250 µM", "setting": "[2]", "result": "2 ± 1", "unit": "µM"},
      {"measurement": "HepG2 (% survival)", "setting": "HepG2 cells", "result": ">80", "unit": "%"}
    ]},
    {"smiles": "O=C(c1cc(C(F)(F)F)[nH]n1)N1CCc2[nH]c3c(F)ccc(F)c3c2C1", "note": "[Compound 29, (6,9-Difluoro-1,3,4,5-tetrahydro-2H-pyrido[4,3-b]indol-2-yl)-(5-(trifluoromethyl)-1H-pyrazol-3-yl)methanone]", "values": [
      {"measurement": "dog LM_NADPH parent compound remaining at the last time point (in parentheses)", "setting": "[1]", "result": 93, "unit": "%"},
      {"measurement": "half-life at 4.6 μM", "setting": "[1]", "result": "> 60", "unit": "min"},
      {"measurement": "solubility kinetic at 24 h, 250 µM", "setting": "[2]", "result": "36 ± 5", "unit": "µM"},
      {"measurement": "HepG2 (% survival)", "setting": "HepG2 cells", "result": ">80", "unit": "%"}
    ]},
    {"smiles": "Cc1ccc(F)c2[nH]c3c(c12)CN(C(=O)c1cc(C(F)(F)F)[nH]n1)CC3", "note": "[Compound 30, (6-Fluoro-9-methyl-1,3,4,5-tetrahydro-2H-pyrido[4,3-b]indol-2-yl)-(5-(trifluoromethyl)-1H-pyrazol-3-yl)methanone]", "values": [
      {"measurement": "dog LM_NADPH parent compound remaining at the last time point (in parentheses)", "setting": "[1]", "result": 92, "unit": "%"},
      {"measurement": "half-life at 4.6 μM", "setting": "[1]", "result": "> 60", "unit": "min"},
      {"measurement": "solubility kinetic at 24 h", "setting": "[2]", "result": "< 1", "unit": "µM"},
      {"measurement": "HepG2 (% survival)", "setting": "HepG2 cells", "result": ">80", "unit": "%"}
    ]},
    {"smiles": "Cc1ccc(F)c2[nH]c3c(c12)CN(C(=O)c1cc(C(F)(F)F)[nH]n1)[C@H](C)C3", "note": "[Compound 39, (R)-(6-Fluoro-3,9-dimethyl-1,3,4,5-tetrahydro-2H-pyrido[4,3-b]indol-2-yl)-(5-(trifluoromethyl)-1H-pyrazol-3-yl)methanone]", "values": [
      {"measurement": "dog LM_NADPH parent compound remaining at the last time point (in parentheses)", "setting": "[1]", "result": 92, "unit": "%"},
      {"measurement": "half-life at 4.6 μM", "setting": "[1]", "result": "> 60", "unit": "min"},
      {"measurement": "solubility kinetic at 24 h", "setting": "[2]", "result": "< 1", "unit": "µM"},
      {"measurement": "HepG2 (% survival)", "setting": "HepG2 cells", "result": ">80", "unit": "%"}
    ]}
  ]
}
